Results reported in patent publication EP0326640B1, “(1R,5S,6S)-2-substituted thio-6 (R)-1-hydroxyethyl -1-methyl-carbapenem - carboxylic acid derivatives” (LEDERLE (JAPAN) LTD., priority 1987, dated 1989).
Values after ≈ are worked out from the molar mass of the structure shown.

Experiments:
[1] = tested on: Proteus mirabilis IFO3849; test: Antibacterial test, agar plate dilution method (MIC), standard strains; format: cell-based; conditions: Proteus mirabilis IFO3849; MH agar, 37°C, 18 hours
Experimental: (§1) The antibacterial activities were tested by an agar plate dilution method in accordance with the standard method of The Japanese Chemotherapy Society [Chemotherapy, Vol. 29, 76-79 (1981)].
(§2) A Mueller-Hinton (MH) agar liquid medium of a test microorganism was cultured overnight at 37°C and the resultant culture medium was diluted with a buffered saline gelatin (BSG) solution to contain approximately 10⁶ cells of the test microorganisms per milliliter, and then the diluted solution was inoculated with a microplanter at the rate of approximately 5 microliters on a MH agar medium containing a test compound. This medium was then incubated at 37°C for 18 hours. The minimum inhibitory concentration (MIC) is determined as a minimum concentration in which no test microorganism could grow. It is noted here that the test organisms used were all standard strains.

Proteus vulgaris OX-19 = test: as above; format: cell-based; conditions: Proteus vulgaris OX-19; MH agar, 37°C, 18 hours
Experimental: as §1, §2

[2] = tested on: Salmonella schottmuelleri 8006; test: as above; format: cell-based; conditions: MH agar, 37°C, 18 hours
Experimental: as §1, §2

[3] = tested on: Morganella morganii IFO3848; test: as above; format: cell-based; conditions: MH agar, 37°C, 18 hours
Experimental: as §1, §2

[4] = tested on: Salmonella paratyphi 1015; test: as above; format: cell-based; conditions: MH agar, 37°C, 18 hours
Experimental: as §1, §2

Salmonella typhi 901 = test: as above; format: cell-based; conditions: MH agar, 37°C, 18 hours
Experimental: as §1, §2

[5] = tested on: Pseudomonas aeruginosa IFO 3445; test: as above; format: cell-based; conditions: MH agar, 37°C, 18 hours
Experimental: as §1, §2

[6] = tested on: Salmonella enteritidis G14; test: as above; format: cell-based; conditions: Salmonella enterica, MH agar, 37°C, 18 hours, read-out: MIC
Experimental: as §1, §2

[7] = tested on: Providencia rettgeri IFO 3850; test: as above; format: cell-based; conditions: MH agar, 37°C, 18 hours
Experimental: as §1, §2

Proteus vulgaris HX-19 = test: as above; format: cell-based; conditions: Proteus vulgaris HX-19; MH agar, 37°C, 18 hours
Experimental: as §1, §2

[8] = tested on: Pseudomanas aeruginosa NCTC 10940; test: as above; format: cell-based; conditions: MH agar, 37°C, 18 hours
Experimental: as §1, §2

[9] = tested on: Serratia marcescens IAM1184; test: as above; format: cell-based; conditions: MH agar, 37°C, 18 hours
Experimental: as §1, §2

Escherichia coli No. 96 = test: Antibacterial activity against clinically isolated β-lactamase (cephalosporinase) producing strains (MIC); format: cell-based; conditions: cephalosporinase producing strain, SDA, 18 to 20 hours
Experimental: (§3) The antibacterial activities against clinically isolated β-lactamase producing strains were tested by the agar plate dilution method in accordance with the standard method of The Japanese Chemotherapy Society [Chemotherapy, Vol. 29, 76-79 (1981)]. A solution of a cephalosporinase producing strain stored by Episome Research Institute, prepared by incubating the strain in a sensitivity test broth (STB; product of Nissui K. K.) for 18 hours, was diluted with a fresh STB solution so that the solution contained 10⁶ cells per milliliter. The diluted solution was then inoculated as spots in a microplanter on a sensitivity disk agar-N (SDA; product of Nissui K. K.) containing a test compound. The disk agar was then incubated for 18 to 20 hours. The minimum inhibitory concentration was determined as a minimum concentration in which the test microorganism no longer grew after a 18 to 20-hour incubation.

[10] = tested on: Enterobacter cloacae GN 5797; test: as above; format: cell-based; conditions: cephalosporinase producing strain, SDA, 18 to 20 hours
Experimental: as §3

[11] = tested on: Providencia rettgeri GN 4430; test: as above; format: cell-based; conditions: cephalosporinase producing strain, SDA, 18 to 20 hours
Experimental: as §3

[12] = tested on: Escherichia coli No. 1501; test: as above; format: cell-based; conditions: cephalosporinase producing strain, SDA, 18 to 20 hours
Experimental: as §3

Proteus vulgaris GN 4413 = test: as above; format: cell-based; conditions: Proteus vulgaris GN 4413; cephalosporinase producing strain, SDA, 18 to 20 hours
Experimental: as §3

[13] = tested on: Enterobacter cloacae GN 7467; test: as above; format: cell-based; conditions: Enterobacter cloacae, GN7467, Enterobacter cloacae GN 7467; cephalosporinase producing strain, SDA, 18 to 20 hours
Experimental: as §3

Proteus vulgaris GN 7919 = test: as above; format: cell-based; conditions: Proteus vulgaris GN 7919; cephalosporinase producing strain, SDA, 18 to 20 hours
Experimental: as §3

Escherichia coli GN 5482 = test: as above; format: cell-based; conditions: cephalosporinase producing strain, SDA, 18 to 20 hours
Experimental: as §3

Proteus morganii GN 5307 = test: as above; format: cell-based; conditions: Proteus morganii GN 5307; cephalosporinase producing strain, SDA, 18 to 20 hours
Experimental: as §3

[14] = tested on: Pseudomonas aeruginosa GN 10367; test: as above; format: cell-based; conditions: GN10367; Pseudomonas aeruginosa GN 10367; cephalosporinase producing strain, SDA, 18 to 20 hours; read-out: MIC
Experimental: as §3

Serratia marcescens L-65 = test: as above; format: cell-based; conditions: Serratia marcescens L-65; cephalosporinase producing strain, SDA, 18 to 20 hours
Experimental: as §3

Proteus morganii GN 5407 = test: as above; format: cell-based; conditions: Morganella morganii, GN5407, cephalosporinase producing strain, SDA, 18 to 20 hours
Experimental: as §3

Serratia marcescens L-82 = test: as above; format: cell-based; conditions: cephalosporinase producing strain, SDA, 18 to 20 hours
Experimental: as §3

[15] = tested on: Pseudomonas aeruginosa GN 10362; test: as above; format: cell-based; conditions: cephalosporinase producing strain, SDA, 18 to 20 hours
Experimental: as §3

[16] = tested on: Citrobactor freundii GN 7391; test: as above; format: cell-based; conditions: cephalosporinase producing strain, SDA, 18 to 20 hours
Experimental: as §3

[17] = tested on: Klebsiella oxytoca GN 10650; test: as above; format: cell-based; conditions: Klebsiella oxytoca GN 10650; cephalosporinase producing strain, SDA, 18 to 20 hours
Experimental: as §3

[18] = tested on: Pseudomonas aeruginosa GN 918; test: as above; format: cell-based; conditions: Pseudomonas aeruginosa, GN918, Pseudomonas aeruginosa GN 918; cephalosporinase producing strain, SDA, 18 to 20 hours
Experimental: as §3

Proteus vulgaris GN 76 = test: as above; format: cell-based; conditions: Proteus vulgaris GN 76; cephalosporinase producing strain, SDA, 18 to 20 hours
Experimental: as §3

Proteus morganii GN 5375 = test: as above; format: cell-based; conditions: Morganella morganii, GN5375, cephalosporinase producing strain, SDA, 18 to 20 hours
Experimental: as §3

[19] = tested on: Serratia marcescens GN 10857; test: as above; format: cell-based; conditions: Serratia marcescens GN 10857; cephalosporinase producing strain, SDA, 18 to 20 hours
Experimental: as §3

[20] = tested on: Providencia rettgeri GN 5284; test: as above; format: cell-based; conditions: cephalosporinase producing strain, SDA, 18 to 20 hours
Experimental: as §3

[21] = tested on: Pseudomonas cepacia GN 11164; test: as above; format: cell-based; conditions: cephalosporinase producing strain, SDA, 18 to 20 hours
Experimental: as §3

[22] = tested on: Enterobacter cloacae GN 7471; test: as above; format: cell-based; conditions: cephalosporinase producing strain, SDA, 18 to 20 hours
Experimental: as §3

[23] = tested on: Citrobactor freundii GN 346; test: as above; format: cell-based; conditions: cephalosporinase producing strain, SDA, 18 to 20 hours
Experimental: as §3

[24] = tested on: Providencia rettgeri GN 4762; test: as above; format: cell-based; conditions: Providencia rettgeri GN 4762; cephalosporinase producing strain, SDA, 18 to 20 hours
Experimental: as §3

[25] = tested on: P. aeruginosa resistant strains; test: Sensitivity test against clinical isolates, agar plate dilution method; format: cell-based
Experimental: The test procedures were based on the agar plate dilution method in accordance with the standard method of The Japanese Chemotherapy Society. The minimum inhibitory concentration (MIC) was determined in substantially the same manner as the test procedures II above using the 54 strains of P. aeruginosa having an anti-Pseudomonas resistance.

[26] = tested on: male mice of CrjCD(SD) strain; test: Toxicity, intravenous administration to mice, observation for one week; format: in vivo; conditions: 500 mg/kg administered intravenously; group of 10 male mice
Experimental: Toxicological studies were carried out using a group of 10 male mice of CrjCD(SD) strain weighing from 20 to 23 grams. A solution containing the crystalline carbapenem compound (20) of the present invention obtained by Example 11 was administered intravenously to the mice and subjected to observations for one week.

**Q.** Which results are given for C[C@@H](O)[C@H]1C(=O)N2C(C(=O)[O-])=C(SCc3cs[n+](C)n3)[C@H](C)[C@H]12 [Crystalline Compd. (20), (1R,5S,6S)-2-[(2-methyl-1,2,3-thiadiazolium-4-yl)methyl]thio-6-[(R)-1-hydroxyethyl]-1-methyl-carbapenem-3-carboxylate]?
**A.** MIC [1]: 3.13 µg/mL (≈ 8.81 µM); MIC (Proteus vulgaris OX-19): 1.56 µg/mL (≈ 4.39 µM); MIC [2]: 0.39 µg/mL (≈ 1.1 µM); MIC [3]: 0.2 µg/mL (≈ 0.563 µM); MIC [4]: 1.56 µg/mL (≈ 4.39 µM); MIC (Salmonella typhi 901): 0.013 µg/mL (≈ 0.0366 µM); MIC [5]: 0.39 µg/mL (≈ 1.1 µM); MIC [6]: 0.78 µg/mL (≈ 2.19 µM); MIC [7]: 0.025 µg/mL (≈ 0.0703 µM); MIC (Proteus vulgaris HX-19): 1.56 µg/mL (≈ 4.39 µM); MIC [8]: 0.2 µg/mL (≈ 0.563 µM); MIC [9]: 0.78 µg/mL (≈ 2.19 µM); MIC (Escherichia coli No. 96): 0.05 µg/mL (≈ 0.141 µM); MIC [10]: 0.1 µg/mL (≈ 0.281 µM); MIC [11]: 0.39 µg/mL (≈ 1.1 µM); MIC [12]: 0.05 µg/mL (≈ 0.141 µM); MIC (Proteus vulgaris GN 4413): 3.13 µg/mL (≈ 8.81 µM); MIC [13]: 1.56 µg/mL (≈ 4.39 µM); MIC (Proteus vulgaris GN 7919): 0.78 µg/mL (≈ 2.19 µM); MIC (Escherichia coli GN 5482): 0.05 µg/mL (≈ 0.141 µM); MIC (Proteus morganii GN 5307): 0.78 µg/mL (≈ 2.19 µM); MIC [14]: 3.13 µg/mL (≈ 8.81 µM); MIC (Serratia marcescens L-65): 0.39 µg/mL (≈ 1.1 µM); MIC (Proteus morganii GN 5407): 1.56 µg/mL (≈ 4.39 µM); MIC (Serratia marcescens L-82): 0.2 µg/mL (≈ 0.563 µM); MIC [15]: 0.78 µg/mL (≈ 2.19 µM); MIC [16]: 0.78 µg/mL (≈ 2.19 µM); MIC [17]: 0.2 µg/mL (≈ 0.563 µM); MIC [18]: 1.56 µg/mL (≈ 4.39 µM); MIC (Proteus vulgaris GN 76): 3.13 µg/mL (≈ 8.81 µM); MIC (Proteus morganii GN 5375): 1.56 µg/mL (≈ 4.39 µM); MIC [19]: 3.13 µg/mL (≈ 8.81 µM); MIC [20]: 0.39 µg/mL (≈ 1.1 µM); MIC [21]: 0.39 µg/mL (≈ 1.1 µM); MIC [22]: 0.1 µg/mL (≈ 0.281 µM); MIC [23]: 0.78 µg/mL (≈ 2.19 µM); MIC [24]: 0.2 µg/mL (≈ 0.563 µM); concentration to inhibit the growth of all the test microorganisms [25]: 6.25 µg/mL; percent of strains inhibited at 3.13 µg/mL ([25]; Pseudomonas aeruginosa, read-out: test microorganisms whose growth is inhibited): ~99%; toxicity, observations for one week [26]: alive without any abnormal observations
